Measurements taken from patent US20260000763A1, “Methods of Manufacturing Therapeutic Cells” (The Board of Trustees of the Leland Stanford Junior …, priority 2022, published 2026).

Key:
GD2-CAR T cells = GD2-CAR T cells manufactured in TexMACS with increasing concentrations of INO; assay type: cell-based
Protocol: FIG. 13A-13H: Clinical scale manufacturing of clinical grade GD2-CAR T cells using media containing inosine, improves CAR product quality. A: Schematic of large-scale manufacturing of GD2.bbz-CAR+ T cells in a semi-closed G-Rex system in glucose-or inosine-containing media. 7 days post-activation, transduction efficiency, percentage of viable cells, and CD4/CD8 ratio of GD2+ cells were assessed by flow cytometry. […] B: Expansion of total viable T cells manufactured in control (black) vs. inosine (green)-containing media and (Right) corresponding number of CAR+ cells at day 7. […] C: IL-2 and IFNg secretion by CAR T cells stimulated for 24 hrs with 143b, mg63.3 or Nalm6-GD2 tumor lines. […] D: NSG mice were injected with 1×10^6 Nalm6 leukemia cells. On day 3 post-tumor injection, 2×10^6 of mock or GD2.bbz-CAR T cells manufactured in the presence of inosine or in regular media were transferred intravenously. Tumor growth was monitored by bioluminescent imaging. […] P values determined at day 43 by using Mann-Whitney test. […] E: Concentration of CD45+ T cells detected in blood of mice at D33 post-CAR T cell injection. […] F: Schematic of the experimental design. G: GD2.bbz-CAR T cells grown in media containing indicated inosine concentration between day 3 and day 10 post-activation and stimulated with 143b tumor. IL-2 and IFNg secretion after 24 hrs of co-culture was measured. Data are mean±s.d. of duplicate or triplicate wells. Representative of n=3 donors shown. […] Reprograming is due to an increase in glutaminolysis and polyamine synthesis and downregulation of CD73, FOXP3, A2aR and c-AMP response transcription factors.
Finally, to test compatibility of adding INO to GMP-grade culture media that contains glucose, GD2-CAR T cells were manufactured in TexMACS™ with increasing concentrations of INO (FIG. 13F).

[1] = test system: Nalm6-GD2, 143b and CHL255 tumor cell lines; assay: Co-culture of HA CAR T cells with GD2-expressing tumor lines: IncuCyte killing, IL-2 and IFNγ secretion; assay type: cell-based, human; settings: for antigen induced IFNγ secretion: Nalm6-GD2 24 hrs, D14 cells, INO in presence or absence of glucose
[2] = test system: Nalm6-GD2+ leukemia cells; assay: Nalm6-GD2+ leukemia in NSG mice treated with HA CAR T cells; assay type: in vivo; settings: 2×10^6 HA CAR T cells IV day 3, expanded in inosine vs regular media
Protocol: (§1) A: NSG mice were injected IV with 1×10^6 Nalm6 leukemia cells at day 0, and then 0.2×10^6 CD19.28 CAR T cells, generated in regular or inosine-supplemented media were given IV on day 3. Tumor progression was monitored using bioluminescent imaging. Scales are normalized for all time points. Data are mean+s.e.m. of n=5 mice per group. […] B: NSG mice were injected IV with 1×10^6 Nalm6-GD2+ leukemia cells at day 0, and then 2×10^6 HA CAR T cells, generated in regular or inosine-containing media were given IV on day 3. Tumor progression was monitored using bioluminescent imaging. Scales are normalized for all time points. Data are mean+s.e.m. of n=5 mice per group. […] C: Overall survival. N=5 mice per group. Survival curves were compared using the log-rank Mantel-Cox test. D: NSG mice were injected intramuscular with 1×10^6 143b tumor cells. 4 days later the mice were injected with 1×10^7 Her2, Her2 grown in INO+ media or mock T cells IV. Tumor growth was monitored by caliper measurements. […] N=3-5 mice per group. Survival curves were compared using the log-rank Mantel-Cox test.
(§2) In this example, the in vivo anti-tumor potency of CAR T cells manufactured in the presence or absence of inosine was assessed. […] Three days post tumor injection, mice were evaluated and normalized for engraftment using bioluminescent imaging. […]

CD19.28 CAR T cells = CD19.28 CAR T cells expanded in inosine vs glucose media: Annexin V, CAR expression, CD4/CD8, memory phenotype (flow cytometry); assay type: cell-based
Protocol: In this example, CD19.28 CAR T cells were cultured in regular complete RPMI media until day 4, and then the cells were split between 11 mM glucose-(CTR) or 11 mM inosine-(INO) containing media (unless stated otherwise). A: Annexin 5 staining was performed at day 17 post-activation. Representative histograms of n=3 donors are shown. B: Surface CD19.28 CAR expression at day 14 post-activation. C: MFI of CAR molecules on CD19.28z CAR T cell surface at day 14 post activation. D: Ratio of CD4+vs CD8+CD19.28 CAR T cells at day 14 post-activation. E: CD19.28z CAR T cells were co-cultured with cells of the Nalm6 tumor line (1:8 E: T) for 75 hrs in an IncuCyte assay. […] Representative donor of n=3 is shown. F: Control media was replaced by INO+ media at the indicated day post activation. At day 14, cells were stimulated with Nalm6 tumor line, and IL-2 and IFNγ secretion was assessed by ELISA. […] For A and B, P values were determined by paired two-tailed t-tests. […] For F and G, P values were determined by unpaired two-tailed t-tests.
In this example, CAR T cells were cultured in control media until day 4 post activation, followed by continued expansion in regular or inosine-containing media. Phenotype of the cells was assessed by flow cytometry at day 21 post activation. A: Frequency of CD62L+ and CCR7+HA CAR+ T cells in 8 different donors. Representative histograms are shown. B: Relative frequency of central memory (CM), naïve, terminally differentiated (TEMRA) and effector memory (EM) HA CAR T cells. N=8 donors. C: Frequency of CD62L+ and CCR7+CD19.28 CAR+ T cells in 8 different donors. Representative histograms are shown. D: Relative frequency of central memory (CM), naïve, terminally differentiated (TEMRA) and effector memory (EM) CD19.28 CAR T cells. N=8 donors.
In this example, CD19.28 CAR T cells were generated using a retroviral vector and at day 4 post-activation, the cells were split between 11 mM glucose-(CTR) or 11 mM inosine-(INO) containing media (unless stated otherwise). Tested first was whether the absence of glucose in the culture media has a negative effect on the viability of CAR T cells.

Nalm6 leukemia cells = assay: Nalm6 leukemia in NSG mice treated with CD19.28 CAR T cells (in vivo stress test); settings: 0.2×10^6 CD19.28 CAR T cells IV day 3, manufactured in inosine vs regular media
Protocol: as §1, §2

[3] = day 14, 11 mM inosine vs glucose

O=c1[nH]cnc2c1ncn2[C@@H]1O[C@H](CO)[C@@H](O)[C@H]1O [inosine, Inosine]
antigen induced cytokine production (GD2-CAR T cells; INO 11 mM vs lower concentrations): trend toward greater antigen induced cytokine production | cell proliferation (GD2-CAR T cells; TexMACS (contains glucose) with increasing INO): significantly decreased cell proliferation | CAR T cell viability (GD2-CAR T cells; TexMACS with increasing INO): no changes | secretion of IL-2 and IFNg (GD2-CAR T cells; challenged with 143b cells, 24 hrs, INO day 3 to day 10): dose-dependent increase | CD62L expression (GD2-CAR T cells; vs control cells): increased CD62L expression | cytotoxic function ([1]; INO added on day 4, 7, 10 or 14, 143b 1:1 E:T from day 15): increased cytotoxic function | antigen induced IFNγ secretion [1]: significantly enhanced antigen induced IFNγ secretion | antigen induced IFNγ secretion ([1]; listed as INO): enhanced antigen induced IFNγ secretion | tumor killing and cytokine secretion after multiple stimulations ([1]; serial challenge with Nalm6-GD2 1:1, glucose present or absent during manufacturing): enhanced tumor killing and cytokine secretion | survival [2]: improved | tumor control [2]: improved | percentage of live cells (CD19.28 CAR T cells; CD19.28 CAR T cells, 11 mM inosine vs 11 mM glucose, day 17): increase | frequency of Annexin V+ apoptotic cells (CD19.28 CAR T cells; CD19.28 CAR T cells, 11 mM inosine without glucose from day 4, vs 11 mM glucose, day 17 post-activation): significantly lower frequency | CAR MFI (CD19.28 CAR T cells; CD19.28z CAR T cell surface, day 14, 11 mM inosine vs glucose): increased | CD4/CD8 ratio (CD19.28 CAR T cells; [3]): neither percentage of CAR+ T cells nor CD4/CD8 ratio was affected | percentage of CAR+ T cells (CD19.28 CAR T cells; [3]): neither percentage of CAR+ T cells nor CD4/CD8 ratio was affected | tumor growth (bioluminescent imaging) (Nalm6 leukemia cells): significantly delayed tumor growth
